The source of these data is patent US7655670B2 (Janssen Pharmaceutica N.V., priority 2005, dated 2010).

Test [1] concerns the target Kappa (κ) opioid receptor (Homo sapiens, UniProt P41145). Briefly: Filtration binding assay, kappa opioid receptor (U69593-H3 ligand).
The target of test [2] is Mu (μ) opioid receptor (Homo sapiens, UniProt P35372). Kind of test: Filtration binding assay, mu opioid receptor (Damgo-H3 ligand).
Test [3] deals with human nociceptin receptor (ORL-1) (Homo sapiens, UniProt P41146). Briefly: nociceptin receptor (ORL-1) binding assay, 125I-Tyr14-nociceptin displacement.
Sequence of human nociceptin receptor (ORL-1) (P41146 whole entry): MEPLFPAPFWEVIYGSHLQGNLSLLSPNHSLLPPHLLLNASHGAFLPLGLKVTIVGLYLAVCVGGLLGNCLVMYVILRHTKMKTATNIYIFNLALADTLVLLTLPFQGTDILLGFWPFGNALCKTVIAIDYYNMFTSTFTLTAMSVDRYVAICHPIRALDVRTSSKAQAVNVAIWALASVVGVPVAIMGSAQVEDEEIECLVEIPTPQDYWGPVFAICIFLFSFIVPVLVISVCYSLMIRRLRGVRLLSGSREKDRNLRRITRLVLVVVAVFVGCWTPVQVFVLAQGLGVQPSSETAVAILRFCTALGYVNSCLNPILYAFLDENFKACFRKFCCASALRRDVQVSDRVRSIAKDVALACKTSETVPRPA
Test [4] addresses T1, ORL-1 receptor (Homo sapiens, UniProt P41146).
T1 construct: expressed in transfected cells; host or cells: HEK-293 over-expressing ORL-1 and Gqi5
Kind of test: ORL-1 functional assay (calcium flux, FLIPR). Conditions: for Inhibitor: HEK-293 cells over-expressing ORL-1 receptor and Gqi5 G protein, calcium flux; for % Inhibition (100 nM Nociceptin): inhibition of calcium signal from 100 nM nociceptin, HEK-293 cells with ORL-1 and Gqi5. Further details: key to Inhibitor: a notation of “no” indicates that the compound did not act as an inhibitor; a notation of “yes” indicates that the compound acted as an inhibitor; a notation of “undetermined” indicates that the data did not clearly show whether or not the compound acted as an antagonist. It is filed as cell-based. The protocol: To assay the function of a test compound, a HEK-293 cell line that over-expresses the ORL-1 receptor and the Gqi5 G protein (Molecular Devices) were employed. By using a calcium flux assay, agonism and antagonism through the ORL-1 receptor were detectable.
The HEK-293 cells were plated two days prior to assay. For assay, cells in 50 μl of medium were incubated with 50 μl of dye (Molecular Devices) for 1 hour at 37° C. 100 μl of test compound diluted in Hank's Buffered Salt Solution (HBSS) at 2-fold the indicated final concentration was added and time points taken every 1 second for 1 minute and every 3 seconds for an additional 1 minute using FLIPR384 (Molecular Devices). 50 μl of nociceptin (Neosystems, SA) at 5-fold the indicated final concentration was then added and additional time points were recorded every 1 second for 1 minute and every 3 seconds for an additional 1 minute.
The resulting data were processed using Microsoft Excel 6.0 and EC50 values were determined using GraphPad Prism 3.0. For agonists, the EC50 was determined from the initial calcium signal obtained after addition of the test compound. For compounds that behaved as antagonists, the percent inhibition or IC50 of the signal resulting from the subsequent addition of the nociceptin peptide was calculated.
In general terms: Calcium assays in cells follow changes in intracellular calcium, usually with a dye or a luminescent sensor.

The target in test [5] is Delta (δ) opioid receptor (Homo sapiens, UniProt P41143). Briefly: Filtration binding assay, delta opioid receptor (DPDPE-H3 ligand).
Sequence of Delta (δ) opioid receptor (P41143 whole entry): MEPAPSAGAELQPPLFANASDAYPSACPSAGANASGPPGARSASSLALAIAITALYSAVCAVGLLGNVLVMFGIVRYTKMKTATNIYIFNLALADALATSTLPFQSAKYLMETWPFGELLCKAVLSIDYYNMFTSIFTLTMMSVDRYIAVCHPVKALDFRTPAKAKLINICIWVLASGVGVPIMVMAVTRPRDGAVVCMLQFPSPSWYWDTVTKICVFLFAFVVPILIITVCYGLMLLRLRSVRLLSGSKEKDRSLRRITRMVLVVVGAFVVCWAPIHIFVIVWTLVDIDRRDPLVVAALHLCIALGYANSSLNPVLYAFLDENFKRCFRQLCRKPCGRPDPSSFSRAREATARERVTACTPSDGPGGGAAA
Setting [6] is: 2C2 cell line membrane, U69593-H3 ligand, calculated mean where tested more than once, read-out: Kappa (κ) IC50.
Where [7] appears, read: 1 D4 cell line membrane, Damgo-H3 ligand, calculated mean where tested more than once, read-out: Mu (μ) IC50.
Where [8] appears, read: 2D4 cell line membrane, DPDPE-H3 ligand, calculated mean where tested more than once, read-out: Delta (δ) IC50.

Like-named read-outs stand apart in the source and are kept apart here. Some results are limits rather than exact numbers.

Sequence of Mu (μ) opioid receptor (P35372 whole entry): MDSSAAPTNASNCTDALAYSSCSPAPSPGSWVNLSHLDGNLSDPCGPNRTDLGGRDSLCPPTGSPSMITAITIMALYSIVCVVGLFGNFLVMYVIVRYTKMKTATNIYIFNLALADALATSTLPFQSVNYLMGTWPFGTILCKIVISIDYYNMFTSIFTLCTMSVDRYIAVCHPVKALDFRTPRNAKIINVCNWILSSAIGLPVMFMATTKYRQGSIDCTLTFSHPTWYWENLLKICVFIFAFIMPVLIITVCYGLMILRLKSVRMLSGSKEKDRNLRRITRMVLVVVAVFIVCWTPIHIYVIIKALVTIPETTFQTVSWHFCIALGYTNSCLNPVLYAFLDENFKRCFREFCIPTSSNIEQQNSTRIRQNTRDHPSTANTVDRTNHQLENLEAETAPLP
T1 sequence (P41146 whole entry): as the sequence (P41146 whole entry) above
Sequence of Kappa (κ) opioid receptor (P41145 whole entry): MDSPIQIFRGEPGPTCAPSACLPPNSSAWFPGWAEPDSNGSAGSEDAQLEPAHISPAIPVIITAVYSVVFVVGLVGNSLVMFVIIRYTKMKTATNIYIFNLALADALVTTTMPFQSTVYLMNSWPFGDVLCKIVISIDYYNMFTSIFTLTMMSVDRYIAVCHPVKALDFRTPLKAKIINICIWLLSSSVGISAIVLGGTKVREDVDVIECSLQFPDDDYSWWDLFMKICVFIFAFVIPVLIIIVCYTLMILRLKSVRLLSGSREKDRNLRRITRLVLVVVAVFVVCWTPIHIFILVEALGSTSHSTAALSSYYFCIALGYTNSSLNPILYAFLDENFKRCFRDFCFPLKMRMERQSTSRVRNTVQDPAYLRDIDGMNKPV

As to `O=C1N(CC2CO2)c2ccccc2C12CCN(CC1CCCCCCC1)CC2` (stereo not shown) [Compound 60], the IC50 in test [1] (setting [6]) is 0.48 µM; in test [2] (setting [7]) it was 0.84 µM; in test [3], 0.083 µM. In addition, in test [4], the Inhibitor result is reported as “no”. The “% Inhibition (100 nM Nociceptin)” value in test [4] came to 17 ± 3%.

As for `COC(=O)CN1C(=O)C2(CCN(C3Cc4cccc5cccc3c45)CC2)c2ccccc21` (stereo not shown) [Compound 30], the IC50 is above 10 µM in test [5] (setting [8]), 4.41 µM in test [1] (setting [6]) and above 10 µM in test [2] (setting [7]).

Turning to `COC(=O)CN1C(=O)C2(CCN(CC3CCCCCCC3)CC2)c2ccccc21` [Compound 42], the IC50 in test [1] (setting [6]) was 0.64 µM; in test [2] (setting [7]), 3.55 µM; in test [3] it was 0.1 µM.

Compound `COC(=O)CN1C(=O)C2(CCN(Cc3ccc(C(F)(F)F)cc3)CC2)c2ccccc21` [Compound 11] registered an IC50 in test [3] of 0.88 µM.

Turning to `COC(=O)CN1C(=O)C2(CCN(Cc3cccc(C(F)(F)F)c3)CC2)c2ccccc21` [Compound 12], in test [3], the IC50 came out at 0.14 µM.

For `CCN(Cc1ccc(C)cc1)CC(O)CN1C(=O)C2(CCN(CC3CCCCCCC3)CC2)c2ccccc21` (stereo not shown) [Compound 62], the IC50 in test [1] (setting [6]) is 0.22 µM; in test [2] (setting [7]), 0.62 µM; in test [3], 0.32 µM.

On to `CN1C(=O)C2(CCN(CC3CCCCCCC3)CC2)c2ccc(O)cc21` [Compound 19], for which the IC50 was 0.3 µM in test [5] (setting [8]), 0.12 µM in test [1] (setting [6]), above 10 µM in test [2] (setting [7]) and 2.68 µM in test [3].

With `COC(=O)CN1C(=O)C2(CCN(CC3CCCCCCCCCCC3)CC2)c2ccccc21` [Compound 27], the IC50 in test [3] worked out at 1.12 µM.

For the compound `CC(C)c1ccc2c(c1)C1(CCN(CC3CCCCCCC3)CC1)C(=O)N2C` [Compound 7, 1-methyl-5-(cyclooctyl-methyl)-9-isopropyl-spiro[indoline-3,4′-piperidin]-2-one], the IC50 worked out at 0.097 µM in test [1] (read-out: Kappa (κ) IC50), 0.98 µM in test [2] (read-out: Mu (μ) IC50) and 7.4 µM in test [3].

For the compound `CN1C(=O)C2(CCN(CC3CCCCCCC3)CC2)c2cc(C(F)(F)F)ccc21` [Compound 8, 1-methyl-5-(cyclooctyl-methyl)-9-trifluoromethyl-spiro[indoline-3,4′-piperidin]-2-one], the IC50 in test [5] was above 10 µM; in test [2] (setting [7]) it was 5.31 µM; in test [3], 0.6 µM.

With `CC(=O)OCCN1C(=O)C2(CCN(CC3CCCCCCC3)CC2)c2ccccc21` [Compound 46], the values for the IC50 in test [1] (setting [6]), in test [2] (setting [7]) and in test [3] were 2.64 µM, 1.41 µM and 0.18 µM, respectively. In test [4], the Inhibitor result was “no”.

Consider `CN1C(=O)C2(CCN(C(=O)OC(C)(C)C)CC2)c2cc(C(F)(F)F)ccc21` [Compound 14, 1-methyl-5-tert-butoxycarbonyl-9-trifluoromethyl-spiro[indoline-3,4′-piperidin]-2-one], for which the IC50 in test [3] was above 10 µM.

Take `O=C1Nc2ccccc2C12CCN(CC1CCCCCCC1)CC2` [Compound 18]: the results for the IC50 in test [1] (setting [6]), in test [2] (setting [7]) and in test [3] were 0.43 µM, 1.11 µM and 0.38 µM, respectively. Besides, the Inhibitor result in test [4] is on record as “yes”. Further, the “% Inhibition (100 nM Nociceptin)” value in test [4] was 45 ± 9%.

`CCN1C(=O)C2(CCN(CC3CCCCCCC3)CC2)c2ccc(OC)cc21` [Compound 55, 1-ethyl-5-(cyclooctyl-methyl)-10-methoxy-spiro[indoline-3,4′-piperidin]-2-one]: the values for the IC50 in test [2] (setting [7]) and in test [3] were 1.46 µM and 2.75 µM, respectively.

Consider `COC(=O)CN1C(=O)C2(CCN(CC3CC3)CC2)c2ccccc21` [Compound 23], for which the IC50 in test [3] worked out at 3.6 µM.

In the case of `O=C1N(CC2CCCCC2)c2ccccc2C12CCN(C1Cc3cccc4cccc1c34)CC2` (stereo not shown) [Compound 4], the IC50 in test [5] (setting [8]) and in test [2] (setting [7]) was above 10 µM each time.

`CC(=O)N[C@@H](CSCC(O)CN1C(=O)C2(CCN(CC3CCCCCCC3)CC2)c2ccccc21)C(=O)O` (stereo partly shown) [Compound 16]: the IC50 in test [5] (setting [8]) was above 10 µM; in test [1] (setting [6]) it was 0.36 µM; in test [2] (setting [7]), 0.36 µM.

On to `COC(=O)CN1C(=O)C2(CCN(C3CCC4CCCCC4C3)CC2)c2ccccc21` (stereo not shown) [Compound 15], for which the IC50 in test [3] came to 0.9 µM.

As to `COC(=O)CN1C(=O)C2(CCN(CC3CCCCC3)CC2)c2ccccc21` [Compound 24], the IC50 in test [3] was 0.8 µM. Moreover, in test [4], the Inhibitor result is “yes” and the “% Inhibition (100 nM Nociceptin)” value was found to be 32 ± 2%.

As to `Cc1ccc2c(c1)C1(CCN(CC3CCCCCCC3)CC1)C(=O)N2C` [Compound 57, 1-methyl-5-(cyclooctyl-methyl)-9-methyl-spiro[indoline-3,4′-piperidin]-2-one], the IC50 in test [5] (setting [8]) is above 10 µM; in test [1] (setting [6]), 0.54 µM; in test [2] (setting [7]) it was 4.28 µM; in test [3], 0.45 µM. For the same compound, in test [4], the Inhibitor entry was “no”.

Regarding `CCCN1C(=O)C2(CCN(CC3CCCCCCC3)CC2)c2cc(C(C)C)ccc21` [Compound 17], the IC50 was 5.7 µM in test [5] (setting [8]), 4 µM in test [1] (setting [6]) and above 10 µM in test [2] (setting [7]).

On to `Cc1cccc2c1C1(CCN(CC3CCCCCCC3)CC1)C(=O)N2C` [Compound 59, 1-methyl-5-(cyclooctyl-methyl)-8-methyl-spiro[indoline-3,4′-piperidin]-2-one], for which the IC50 in test [1] (setting [6]) was 0.56 µM; in test [2] (setting [7]), 0.48 µM; in test [3], 0.037 µM. Besides, the Inhibitor result in test [4] is “yes”. Moreover, the “% Inhibition (100 nM Nociceptin)” value in test [4] is listed as 81 ± 6%.

In test [3], `COC(=O)CN1C(=O)C2(CCN(Cc3ccc(Cl)cc3)CC2)c2ccccc21` [Compound 39] showed an IC50 of 0.71 µM.

As for `Cc1ccc2c(c1)N(C)C(=O)C21CCN(CC2CCCCCCC2)CC1` [Compound 58, 1-methyl-5-(cyclooctyl-methyl)-10-methyl-spiro[indoline-3,4′-piperidin]-2-one], the IC50 in test [5] (setting [8]) is 8.8 µM; in test [1] (setting [6]) it was 2.38 µM; in test [2] (setting [7]), 6.47 µM; in test [3] it was 0.15 µM. Moreover, in test [4], the Inhibitor result is listed as “undetermined”. Besides, the “% Inhibition (100 nM Nociceptin)” value in test [4] amounted to 48 ± 26%.

Regarding `CCN1CC2(CCN(CC3CCCCCCC3)CC2)c2ccc(OC)cc21` [Compound 63], the IC50 in test [5] (setting [8]), in test [1] (setting [6]) and in test [2] (setting [7]) was above 10 µM in each case.

In the case of `O=C1N(CC(O)CNCCN2CCOCC2)c2ccccc2C12CCN(CC1CCCCCCC1)CC2` (stereo not shown) [Compound 61], the values for the IC50 in test [1] (read-out: Kappa (κ) IC50), in test [2] (read-out: Mu (μ) IC50) and in test [3] were 0.1 µM, 0.5 µM and 0.12 µM, respectively.

With `COc1ccc2c(c1)N(CC1CC1)C(=O)C21CCN(CC2CCCCCCC2)CC1` [Compound 5, 1-(cyclopropyl-methyl)-5-(cyclooctyl-methyl)-10-methoxy-spiro[indoline-3,4′-piperidin]-2-one], in test [2], the IC50 is above 10 µM.

Take `O=C(O)CN1C(=O)C2(CCN(CC3CCCCCCC3)CC2)c2ccccc21` [Compound 41]: the IC50 in test [5], in test [1] and in test [2] was above 10 µM each time.

As for `COC(=O)CN1C(=O)C2(CCN(CC3CCCCCC3)CC2)c2ccccc21` [Compound 1], the IC50 in test [3] was found to be 0.51 µM. For the same compound, in test [4], the Inhibitor entry is given as “no”.

Take `COC(=O)CN1C(=O)C2(CCN(CC3CCC(C(C)(C)C)CC3)CC2)c2ccccc21` (stereo not shown) [Compound 29]: in test [3], the IC50 was 0.1 µM.

As for `CN1C(=O)C2(CCN(CC3CCCCCCC3)CC2)c2ccccc21` [Compound 45], the figures for the IC50 in test [1] (setting [6]), in test [2] (setting [7]) and in test [3] were 0.93 µM, 1.3 µM and 0.032 µM, respectively. For the same compound, the Inhibitor result in test [4] is “no”.

Consider `COC(=O)CN1C(=O)C2(CCN(Cc3ccc4ccccc4c3)CC2)c2ccccc21` [Compound 32], for which the IC50 in test [3] stood at 0.25 µM.

As to `O=C1N(Cc2ccccc2)c2ccccc2C12CCN(CC1CCCCCCC1)CC2` [Compound 44], the results for the IC50 in test [1] (setting [6]), in test [2] (setting [7]) and in test [3] were 1.1 µM, 0.96 µM and 0.12 µM, respectively.

Take `COc1ccc2c(c1)N(C)C(=O)C21CCN(CC2CCCCCCC2)CC1` [Compound 35, 1-methyl-5-(cyclooctyl-methyl)-10-methoxy-spiro[indoline-3,4′-piperidin]-2-one]: the results for the IC50 in test [1] (setting [6]), in test [2] (setting [7]) and in test [3] were 1.22 µM, 1.61 µM and 2.4 µM, respectively.

As to `COC(=O)CN1C(=O)C2(CCN(Cc3cccc4ccccc34)CC2)c2ccccc21` [Compound 43], the IC50 in test [3] turned out to be 0.47 µM.

`CCCCCCN1CCC2(CC1)C(=O)N(CC(=O)OC)c1ccccc12` [Compound 26]: the IC50 in test [3] stood at 0.82 µM.

Regarding `O=C1N(CCO)c2ccccc2C12CCN(CC1CCCCCCC1)CC2` [Compound 20], the IC50 in test [2] (setting [7]) is 1.69 µM; in test [3] it was 0.29 µM.
